Measured values published in the NIST ThermoML archive (doi:10.1016/j.jct.2016.03.026).

Test: xn = mol fraction of the nth substance listed
Conditions: Fluid (supercritical or subcritical phases), x1 = 0.97; for speed of sound: Frequency=5 MHz, Pulse-echo method; for mass density: 283.15 K, Vibrating tube method

O=C=O [carbon dioxide] + CO
speed of sound [m/s]
Conditions	273.15 K	283.14 K
14010 kPa	–	615.2
20000 kPa	–	679.8
25010 kPa	–	725
29940 kPa	–	763.8
34980 kPa	–	799.7
39940 kPa	–	831.8
39990 kPa	875.6	–
44950 kPa	903.5	–
45090 kPa	–	862.8
49960 kPa	929.9	–
50150 kPa	–	890.9
54970 kPa	954.7	–
55020 kPa	–	916.3
59830 kPa	–	940.2
60000 kPa	978.4	–
64950 kPa	1000.7	964.2
69990 kPa	1022.2	–
70150 kPa	–	987.4
74930 kPa	1042.5	–
74970 kPa	–	1007.9
79680 kPa	–	1027.1
80120 kPa	1062.9	–
90140 kPa	1100	–
90230 kPa	–	1067.9
99950 kPa	–	1102.7
99970 kPa	1134.2	–
109900 kPa	–	1136.3
110030 kPa	1167	–
120080 kPa	–	1168.8
120150 kPa	1198.3	–
139940 kPa	1255	–
140090 kPa	–	1227.7
159790 kPa	1307.2	–
159980 kPa	–	1281
180050 kPa	–	1330.2
180530 kPa	1357.4	–

Conditions	mass density [kg/m3]
5300 kPa	882.11
5325 kPa	882.5
5350 kPa	882.83
5375 kPa	883.08
5400 kPa	883.4
5425 kPa	883.67
5450 kPa	883.98
5475 kPa	884.26
5500 kPa	884.47
5525 kPa	884.8
5550 kPa	885.04
5575 kPa	885.37
5600 kPa	885.62
5625 kPa	885.95
5650 kPa	886.26
5675 kPa	886.49
5700 kPa	886.8
5725 kPa	887.09
5750 kPa	887.39
5775 kPa	887.67
5800 kPa	888.01
5825 kPa	888.24
5850 kPa	888.54
5875 kPa	888.77
5900 kPa	889.08
5925 kPa	889.31
5950 kPa	889.55
5975 kPa	889.92
6000 kPa	890.13
6025 kPa	890.33
6050 kPa	890.62
6075 kPa	890.95
6100 kPa	891.19
6125 kPa	891.52
6150 kPa	891.86
6175 kPa	892.08
6200 kPa	892.35
6225 kPa	892.62
6250 kPa	892.89
6275 kPa	893.14
6300 kPa	893.45
6325 kPa	893.63
6350 kPa	893.89
6375 kPa	894.18
6400 kPa	894.43
6425 kPa	894.67
6450 kPa	894.92
6475 kPa	895.17
6500 kPa	895.37
6525 kPa	895.62
6550 kPa	895.96
6575 kPa	896.11
6600 kPa	896.41
6625 kPa	896.62
6650 kPa	896.9
6675 kPa	897.02
6700 kPa	897.4
6725 kPa	897.56
6750 kPa	897.77
6775 kPa	898.06
6800 kPa	898.37
6825 kPa	898.6
6850 kPa	898.87
6875 kPa	899.09
6900 kPa	899.3
6925 kPa	899.5
6950 kPa	899.65
6975 kPa	899.77
7000 kPa	899.79
7025 kPa	899.99
7050 kPa	900.2
7075 kPa	900.45
7100 kPa	900.68
7125 kPa	900.92
7150 kPa	901.15
7175 kPa	901.36
7200 kPa	901.57
7225 kPa	901.84
7250 kPa	902.09
7275 kPa	902.25
7300 kPa	902.49
7325 kPa	902.74
7350 kPa	902.98
7375 kPa	903.16
7400 kPa	903.45
7425 kPa	903.64
7450 kPa	903.9
7475 kPa	904.05
7500 kPa	904.3
7525 kPa	904.46
7550 kPa	904.69
7575 kPa	904.94
7600 kPa	905.11
7625 kPa	905.36
7650 kPa	905.61
7675 kPa	905.8
7700 kPa	906.04
7725 kPa	906.26
7750 kPa	906.42
7775 kPa	906.67
7800 kPa	906.89
7825 kPa	907.08
7850 kPa	907.32
7875 kPa	907.57
7900 kPa	907.73
7925 kPa	908.06
7950 kPa	908.15
7975 kPa	908.39
8000 kPa	908.68
8025 kPa	908.88
8050 kPa	909.06
8075 kPa	909.27
8100 kPa	909.45
8125 kPa	909.7
8150 kPa	909.86
8175 kPa	910.09
8200 kPa	910.33
8225 kPa	910.56
8250 kPa	910.76
8275 kPa	910.96
8300 kPa	911.17
8325 kPa	911.44
8350 kPa	911.66
8375 kPa	911.83
8400 kPa	912.07
8425 kPa	912.24
8450 kPa	912.4
8475 kPa	912.59
8500 kPa	912.85
8525 kPa	913.06
8550 kPa	913.26
8575 kPa	913.46
8600 kPa	913.66
8625 kPa	913.87
8650 kPa	914.07
8675 kPa	914.29
8700 kPa	914.39
8725 kPa	914.62
8750 kPa	914.82
8775 kPa	915.04
8800 kPa	915.26
8825 kPa	915.43
8850 kPa	915.64
8875 kPa	915.83
8900 kPa	916
8925 kPa	916.16
8950 kPa	916.35
8975 kPa	916.53
9000 kPa	916.73
9025 kPa	916.93
9050 kPa	917.12
9075 kPa	917.31
9100 kPa	917.55
9125 kPa	917.75
9150 kPa	917.9
9175 kPa	918.13
9200 kPa	918.33
9225 kPa	918.6
9250 kPa	918.7
9275 kPa	918.95
9300 kPa	919.11
9325 kPa	919.31
9350 kPa	919.52
9375 kPa	919.69
9400 kPa	919.87
9425 kPa	920.09
9450 kPa	920.32
9475 kPa	920.47
9500 kPa	920.65
9525 kPa	920.85
9550 kPa	921.09
9575 kPa	921.21
9600 kPa	921.39
9625 kPa	921.56
9650 kPa	921.81
9675 kPa	921.97
9700 kPa	922.14
9725 kPa	922.38
9750 kPa	922.58
9775 kPa	922.71
9800 kPa	922.94
9825 kPa	923.15
9850 kPa	923.28
9875 kPa	923.48
9900 kPa	923.69
9925 kPa	923.77
9950 kPa	924
9975 kPa	924.18
10000 kPa	924.34
10025 kPa	924.53
10050 kPa	924.71
10075 kPa	924.83
10100 kPa	925.08
10125 kPa	925.24
10150 kPa	925.41
10175 kPa	925.57
10200 kPa	925.75
10225 kPa	926.06
10250 kPa	926.06
10275 kPa	926.3
10300 kPa	926.47
10325 kPa	926.69
10350 kPa	926.79
10375 kPa	927.06
10400 kPa	927.17
10425 kPa	927.34
